Target: T1, hmGluR4 (Homo sapiens, UniProt Q14833)
T1 construct: host or cells: HEK293T
Experiment: HEK-293 mGluR4 cells cAMP assay with EC20 L-Glutamate (HTRF)
Type: cell-based
Conditions: positive allosteric activity at EC20 L-Glutamate, 10 μM Forskolin, HEK293T mGluR4 cells, cAMP HTRF; read-out: hrmGluR4/HEK293T-hmGluR4 (EC50)
Protocol: II. Biological Assays HEK-293 mGluR4 Cells cAMP Assay with EC20 L-Glutamate
Using mGluR4 suspension cell format, 10 μM Forskolin (final conc.) used to induce the production of cAMP.
Test the positive allosteric activity of the compounds of the invention at EC20 (2.3 μM for mGluR4 and 4.3 μM for mGluR6) L-Glutamate,
cAMP dymanic2 kit is intended for the direct quantitative determination of cAMP and its principle is based on HTRF technology.
• Cells: HEK293T mGluR4 cells from Multispan, cat# C1191a lot# C1191a-040910 • Culture Media: DMEM+GlutaMAX1+10% dialyzed FBS, 100 mM Sodium Pyruvate, 1 ug/ml puromycin. • Glutamine Starvation Media: DMEM without GlutaMax for plating the cells (glutamine starvation overnight). DMEM high Glucose, without phenol red, glutamine, or sodium pyruvate+10% dialyzed FBS, 100 mM Sodium Pyruvate, 1 ug/ml puromycin, 10 mM Hepes. • Hanks' balanced Salt Solution, HBSS from Invitrogen • Greiner 384 well white low volume high base plate (784075) • cAMP dynamic2 from Cisbio Bioassays • Glutamate: L-Glutamaic acid, monosodium salt, Monohydrate, 98%, from Sigma-Aldrich • Cell Preparation: split cells at 80%-90% confluence. The following day, rinse the cells with DMEM without GlutaMax and change to Glutamine Starvation Media. Incubate overnight. Assay: • Prepare compound plate: Perform compound serial dilution (uses Matrix 4341 plate), using the Bravo liquid handling platform protocol (compound serial dilution) which adds DMSO to columns 1-24 (except cols. 3 and 13). Serial dilute compounds located in columns 3 and 13 at a 1:3 ratio; 10 points (10 ul of 3 mM compound into 20 ul DMSO). Use the Bravo liquid handling platform to transfer 1 ul from the serial dilution plate into Matrix 4314 plate to create stamp plates. Prepare Compound Dilution Buffer: • Dilute 20 mM Forskolin (in DMSO) stock solution in HBSS buffer to make a 20 uM solution (forskolin buffer; 2× solution). To the forskolin buffer, add glutamate to a concentration of 8 uM (compound dilution buffer; 2× EC20 glutamate and forskolin). • Using a multidrop, add 50 ul/well of compound dilution buffer to columns 1-22 of the 2 ul compound stamp plate. Columns 23 and 24 receive forskolin buffer containing 400 uM glutamate (EC100 glutamate; 2× solution). Columns 1 and 2 receive compound dilution buffer containing EC20 glutamate, which is the basal control. • Add a glutamate dose response to row P of compound plate. Prepare the dose response by serial diluting glutamate at a 1:3 ratio in forskolin buffer starting at 2 mM glutamate (2×). Dilute the glutamate 9 times and transfer to compound plate. Prepare Cell Plates: • Harvest cells: Rinse cells with pre-warmed HBSS-10 mM HEPES (without Ca Mg) and dissociate the cells from the flask with versene. Centrifuge the cells, remove the supernatant and suspend in pre-warmed HBSS+10 mM Hepes. Count the cells and centrifuge. Remove the supernatant and suspend the cells in HBSS+Hepes (with Ca Mg) at a density of 400,000 cells/ml. Perform Assay: • Dispense 5 ul from the diluted compound plate into Greiner low volume cell plate using the Bravo liquid handling platform. Using a Multidrop with the small tubing cassette, dispense 5 ul of cells (2000 cells/well) onto the compounds contained in the low volume plates. Incubate the cells at 37° C., 5% CO2 for 30 minutes in the incubator. Assay for cAMP: • Prepare cAMP-d2 and anti-cAMP-Crytate according to the instructions for the two step assay (see Cisbio manual) and add 10 ul of the mixed reagent to each well of the assay plate using the Multidrop. Incubate at room temperature for 60 minutes and read on the Envision plate reader using the mGluR low volume cAMP HTRF 384 well protocol.

T1 sequence (Q14833 33-912): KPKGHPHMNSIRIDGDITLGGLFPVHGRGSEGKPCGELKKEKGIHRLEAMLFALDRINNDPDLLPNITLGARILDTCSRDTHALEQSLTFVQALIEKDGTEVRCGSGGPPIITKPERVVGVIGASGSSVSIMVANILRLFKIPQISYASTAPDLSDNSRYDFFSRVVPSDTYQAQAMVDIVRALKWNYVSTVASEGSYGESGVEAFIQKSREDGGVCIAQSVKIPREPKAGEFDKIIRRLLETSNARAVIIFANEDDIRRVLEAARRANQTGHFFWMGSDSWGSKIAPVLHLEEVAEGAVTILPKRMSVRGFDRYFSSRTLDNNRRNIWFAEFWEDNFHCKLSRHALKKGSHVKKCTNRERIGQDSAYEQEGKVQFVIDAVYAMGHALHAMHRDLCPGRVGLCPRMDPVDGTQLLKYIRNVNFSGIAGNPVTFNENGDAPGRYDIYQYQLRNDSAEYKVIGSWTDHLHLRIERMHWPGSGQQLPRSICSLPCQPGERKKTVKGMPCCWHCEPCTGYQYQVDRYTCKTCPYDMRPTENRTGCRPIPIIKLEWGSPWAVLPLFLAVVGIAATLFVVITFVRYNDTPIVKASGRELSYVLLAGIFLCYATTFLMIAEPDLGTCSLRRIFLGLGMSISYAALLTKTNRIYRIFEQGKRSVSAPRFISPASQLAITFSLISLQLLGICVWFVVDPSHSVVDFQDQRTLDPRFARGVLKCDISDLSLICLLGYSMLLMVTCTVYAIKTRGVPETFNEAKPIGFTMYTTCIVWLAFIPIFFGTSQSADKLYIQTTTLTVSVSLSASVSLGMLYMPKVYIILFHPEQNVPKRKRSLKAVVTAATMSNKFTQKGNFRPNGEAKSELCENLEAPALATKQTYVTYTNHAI

First: COCCOc1ccc(N2C(=O)c3ccc(Br)cc3NC23CCN(Cc2ccc(F)c(F)c2)CC3)cc1 [Compound 37, 7′-bromo-1-(3,4-difluorobenzyl)-3′-(4-(2-methoxyethoxyl)phenyl)-1′H-spiro[piperidine-4,2′-quinazolin]-4′(3′H)-one]
Second: COCCOC(=O)c1ccc2c(c1)NC1(CCN(Cc3ccc(F)c(F)c3)CC1)N(c1ccc(OC(F)(F)F)cc1)C2=O [Compound 99, 2-Methoxyethyl 1-(3,4-difluorobenzyl)-4′-oxo-3′-(4-(trifluoromethoxy)phenyl)-3′,4′-dihydro-1′H-spiro[piperidine-4,2′-quinazoline]-7′-carboxylate]
The EC50 of the first is lower: under 1000 nM for the first, 1000 to 10000 nM for the second. The first is the more potent here.

`CC(c1ccc(F)c(F)c1)N1CCC2(CC1)Nc1cc(Br)ccc1C(=O)N2c1ccc(Cl)cc1` (stereo not drawn) [Compound 7, 7′-Bromo-3′-(4-chlorophenyl)-1-(1-(3,4-difluorophenyl)ethyl)-1′H-spiro[piperidine-4,2′-quinazolin]-4′(3′H)-one] and `CCC(c1ccc(F)c(F)c1)N1CCC2(CC1)Nc1cc(Br)ccc1C(=O)N2c1ccc(Cl)cc1` (stereo not drawn) [Compound 33, 7′-Bromo-3′-(4-chlorophenyl)-1-(1-(3,4-difluorophenyl)propyl)-1′H-spiro[piperidine-4,2′-quinazolin]-4′(3′H)-one] cannot be ordered by EC50: under 1000 nM for the first, under 1000 nM for the second.

First: COc1ccc(N2C(=O)c3ccccc3NC23CN(Cc2ccc4ccccc4c2)C3)cc1 [Compound 90, 3′-(4-Methoxyphenyl)-1-(naphthalen-2-ylmethyl)-1′H-spiro[azetidine-3,2′-quinazolin]-4′(3′H)-one]
Second: COc1ccc(N2C(=O)c3ccccc3NC23CN(Cc2ccc(Cl)c(Cl)c2)C3)cc1 [Compound 56, 1-(3,4-Dichlorobenzyl)-3′-(4-methoxyphenyl)-1′H-spiro[azetidine-3,2′-quinazolin]-4′(3′H)-one]
The EC50 of the first is higher: 1000 to 10000 nM for the first, under 1000 nM for the second. The second is the more potent here.

`COc1ccc(N2C(=O)c3ccc(Cl)cc3NC23CCN(Cc2cccc(C#N)c2)CC3)cc1` [Compound 75, 3-((7′-Chloro-3′-(4-methoxyphenyl)-4′-oxo-3′,4′-dihydro-1′H-spiro[piperidine-4,2′-quinazolin]-1-yl)methyl)benzonitrile] and `COc1ccc(N2C(=O)c3ccc(OC)cc3NC23CCN(Cc2cccc(F)c2)CC3)cc1` [Compound 68, 1-(3-Fluorobenzyl)-7′-methoxy-3′-(4-methoxyphenyl)-1′H-spiro[piperidine-4,2′-quinazolin]-4′(3′H)-one] fall in the same range of EC50: 1000 to 10000 nM for the first, 1000 to 10000 nM for the second.

`COc1ccc(N2C(=O)c3ccccc3NC23CCN(Cc2ccccc2C#N)CC3)cc1` [Compound 116, 2-((3′-(4-Methoxyphenyl)-4′-oxo-3′,4′-dihydro-1′H-spiro[piperidine-4,2′-quinazolin]-1-yl)methyl)benzonitrile] and `COc1ccc(N2C(=O)c3ccccc3NC23CCN(Cc2ccccc2Cl)CC3)cc1` [Compound 111, 1-(2-Chlorobenzyl)-3′-(4-methoxyphenyl)-1′H-spiro[piperidine-4,2′-quinazolin]-4′(3′H)-one] fall in the same range of EC50: 1000 to 10000 nM for the first, 1000 to 10000 nM for the second.

`COc1ccc(N2C(=O)c3ccccc3NC23CN(Cc2c(F)cc(F)cc2F)C3)cc1` [Compound 119, 3′-(4-Methoxyphenyl)-1-(2,4,6-trifluorobenzyl)-1′H-spiro[azetidine-3,2′-quinazolin]-4′(3′H)-one] and `COc1ccc(N2C(=O)c3ccccc3NC23CN(Cc2ccccc2C(F)(F)F)C3)cc1` [Compound 81, 3′-(4-Methoxyphenyl)-1-(2-(trifluoromethyl)benzyl)-1′H-spiro[azetidine-3,2′-quinazolin]-4′(3′H)-one] fall in the same range of EC50: 1000 to 10000 nM for the first, 1000 to 10000 nM for the second.

First: O=C1c2ccc(Br)cc2NC2(CCN(C(c3ccc(F)c(F)c3)C(F)(F)F)CC2)N1c1ccc(OC(F)(F)F)cc1 (stereo not drawn) [Compound 107, 7′-Bromo-1-(1-(3,4-difluorophenyl)-2,2,2-trifluoroethyl)-3′-(4-(trifluoromethoxy)phenyl)-1′H-spiro[piperidine-4,2′-quinazolin]-4′(3′H)-one]
Second: O=C1c2ccc(F)cc2NC2(CCN(Cc3ccc(F)c(F)c3)CC2)N1c1ccc(OC(F)(F)F)cc1 [Compound 69, 1-(3,4-Difluorobenzyl)-7′-fluoro-3′-(4-(trifluoromethoxy)phenyl)-1′H-spiro[piperidine-4,2′-quinazolin]-4′(3′H)-one]
The EC50 of the first is lower: under 1000 nM for the first, 1000 to 10000 nM for the second. The first is the more potent here.

Compared with `N#Cc1cccc(CN2CC3(C2)Nc2cc(C(F)(F)F)ccc2C(=O)N3c2ccc(OC(F)(F)F)cc2)c1` [Compound 91, 3-((4′-Oxo-3′-(4-(trifluoromethoxy)phenyl)-7′-(trifluoromethyl)-3′,4′-dihydro-1′H-spiro[azetidine-3,2′-quinazolin]-1-yl)methyl)benzonitrile], `CCOC(=O)c1ccc2c(c1)NC1(CN(Cc3ccccc3Cl)C1)N(c1ccc(OC(F)(F)F)cc1)C2=O` [Compound 18, Ethyl 1-(2-chlorobenzyl)-4′-oxo-3′-(4-(trifluoromethoxy)phenyl)-3′,4′-dihydro-1′H-spiro[azetidine-3,2′-quinazoline]-7′-carboxylate] is lower in EC50: 1000 to 10000 nM for the first, under 1000 nM for the second. The second is the more potent here.

First: COc1ccc(N2C(=O)c3ccc(-c4ccncc4)cc3NC23CCN(Cc2ccc(F)c(F)c2)CC3)cc1 [Compound 20, 1-(3,4-Difluorobenzyl)-3′-(4-methoxyphenyl)-7′-(pyridin-4-yl)-1′H-spiro[piperidine-4,2′-quinazolin]-4′(3′H)-one]
Second: COc1ccc(N2C(=O)c3ccc(-c4ccccn4)cc3NC23CCN(Cc2ccc(F)c(F)c2)CC3)cc1 [Compound 73, 1-(3,4-Difluorobenzyl)-3′-(4-methoxyphenyl)-7′-(pyridin-2-yl)-1′H-spiro[piperidine-4,2′-quinazolin]-4′(3′H)-one]
The EC50 of the first is lower: under 1000 nM for the first, 1000 to 10000 nM for the second. The first is the more potent here.

First: O=C1c2ccc(Br)cc2NC2(CCN(Cc3ccncc3)CC2)N1c1ccc(OC(F)(F)F)cc1 [Compound 97, 7′-Bromo-1-(pyridin-4-ylmethyl)-3′-(4-(trifluoromethoxy)phenyl)-1′H-spiro[piperidine-4,2′-quinazolin]-4′(3′H)-one]
Second: O=C1c2ccc(Br)cc2NC2(CCN(Cc3ccccc3)CC2)N1c1ccc(OC(F)(F)F)cc1 [Compound 28, 1-Benzyl-7′-bromo-3′-(4-(trifluoromethoxy)phenyl)-1′H-spiro[piperidine-4,2′-quinazolin]-4′(3′H)-one]
The EC50 of the first is higher: 1000 to 10000 nM for the first, under 1000 nM for the second. The second is the more potent here.

`COc1ccc(N2C(=O)c3ccccc3NC23CCC(Nc2ccccc2)CC3)cc1` (stereo not drawn) [Compound 44, 3′-(4-Methoxyphenyl)-4-(phenylamino)-1′H-spiro[cyclohexane-1,2′-quinazolin]-4′(3′H)-one] and `COc1ccc(N2C(=O)c3ccc(-c4ccco4)cc3NC23CCN(Cc2ccc(F)c(F)c2)CC3)cc1` [Compound 11, 1-(3,4-Difluorobenzyl)-7′-(furan-2-yl)-3′-(4-methoxyphenyl)-1′H-spiro[piperidine-4,2′-quinazolin]-4′(3′H)-one] cannot be ordered by EC50: under 1000 nM for the first, under 1000 nM for the second.

First: COc1ccc(N2C(=O)c3ccc(OC)cc3NC23CCN(Cc2ccc(Cl)s2)CC3)cc1 [Compound 59, 1-((5-Chlorothiophen-2-yl)methyl)-7′-methoxy-3′-(4-methoxyphenyl)-1′H-spiro[piperidine-4,2′-quinazolin]-4′(3′H)-one]
Second: CC(c1ccc(F)cc1)N1CC2(C1)Nc1cc(F)ccc1C(=O)N2c1ccc(OC(F)(F)F)cc1 (stereo not drawn) [Compound 82, 7′-Fluoro-1-(1-(4-fluorophenyl)ethyl)-3′-(4-(trifluoromethoxy)phenyl)-1′H-spiro[azetidine-3,2′-quinazolin]-4′(3′H)-one]
The EC50 of the first is lower: under 1000 nM for the first, 1000 to 10000 nM for the second.

From patent publication US9708321B2, “Spiro-quinazolinone derivatives and their use as positive allosteric modulators of mGluR4” (Merck Patent GmbH, priority 2013, dated 2017)
